Where two headings read alike, the source gives them in different places.
Assays:
human Lpd [1] = molecular target: T1, human Lpd (Homo sapiens, UniProt P09622); assay: Human Lpd dihydrolipoamide-NAD+ spectrophotometric assay; format: biochemical; conditions: dihydrolipoamide and NAD+ as substrates, up to 100 μM
T1 sequence (P09622 36-509): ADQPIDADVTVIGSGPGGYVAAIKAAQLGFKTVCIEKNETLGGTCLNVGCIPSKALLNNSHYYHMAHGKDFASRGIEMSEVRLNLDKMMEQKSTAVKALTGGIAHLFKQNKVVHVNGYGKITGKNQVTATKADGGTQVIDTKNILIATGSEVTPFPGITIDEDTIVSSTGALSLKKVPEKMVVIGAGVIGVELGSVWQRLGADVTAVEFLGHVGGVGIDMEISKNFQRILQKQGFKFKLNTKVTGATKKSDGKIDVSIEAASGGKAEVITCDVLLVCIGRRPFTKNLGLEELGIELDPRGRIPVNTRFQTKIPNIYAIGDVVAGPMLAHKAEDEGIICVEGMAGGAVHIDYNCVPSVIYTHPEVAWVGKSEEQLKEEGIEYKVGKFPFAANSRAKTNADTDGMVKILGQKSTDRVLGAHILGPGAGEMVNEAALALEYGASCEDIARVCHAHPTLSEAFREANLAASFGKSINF

Mtb Lpd [2] = molecular target: T2, Mtb Lpd (Mycobacterium tuberculosis, UniProt P9WHH9)
T2 sequence (P9WHH9 1-464): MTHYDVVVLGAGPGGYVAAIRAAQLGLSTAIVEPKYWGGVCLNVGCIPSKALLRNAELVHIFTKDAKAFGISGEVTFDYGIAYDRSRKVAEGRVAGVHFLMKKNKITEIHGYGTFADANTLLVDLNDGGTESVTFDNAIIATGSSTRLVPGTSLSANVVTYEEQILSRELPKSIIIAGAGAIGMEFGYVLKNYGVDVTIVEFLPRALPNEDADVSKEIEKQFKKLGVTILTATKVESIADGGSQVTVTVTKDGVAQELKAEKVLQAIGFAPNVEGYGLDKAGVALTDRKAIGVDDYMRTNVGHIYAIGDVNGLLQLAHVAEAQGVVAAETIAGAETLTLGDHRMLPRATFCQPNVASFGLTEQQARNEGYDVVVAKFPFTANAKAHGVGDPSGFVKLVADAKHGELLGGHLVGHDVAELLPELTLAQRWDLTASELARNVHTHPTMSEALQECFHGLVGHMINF

[3] = molecular target: T3, PDHC activity in Mtb lysates (Mycobacterium tuberculosis, UniProt P9WHH9); format: biochemical
T3 sequence (P9WHH9 1-464): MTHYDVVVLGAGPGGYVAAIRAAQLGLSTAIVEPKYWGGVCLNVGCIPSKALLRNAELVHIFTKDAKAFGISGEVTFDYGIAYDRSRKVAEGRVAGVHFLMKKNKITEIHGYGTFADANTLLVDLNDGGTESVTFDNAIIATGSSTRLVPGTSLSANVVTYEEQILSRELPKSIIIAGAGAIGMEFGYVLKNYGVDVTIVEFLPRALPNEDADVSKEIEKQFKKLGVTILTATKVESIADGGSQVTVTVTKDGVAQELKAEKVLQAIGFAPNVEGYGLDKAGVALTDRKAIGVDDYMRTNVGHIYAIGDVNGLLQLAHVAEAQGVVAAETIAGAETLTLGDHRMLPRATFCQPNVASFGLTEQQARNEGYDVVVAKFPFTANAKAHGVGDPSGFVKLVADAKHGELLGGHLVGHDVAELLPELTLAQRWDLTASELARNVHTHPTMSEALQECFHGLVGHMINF

[4] = tested on: mouse bone marrow macrophages; assay: cells; format: cell-based; conditions: for EC50: read-out: BMM EC50 (concentration at which viability is reduced to 50%)
Mtb Lpd [5] = molecular target: T2, Mtb Lpd; remark: listed apart in the source
bovine Lpd = molecular target: T4, bovine Lpd (Bos taurus, UniProt F1N206); assay: Bovine Lpd DTNB assay; format: biochemical
T4 sequence (F1N206 36-509): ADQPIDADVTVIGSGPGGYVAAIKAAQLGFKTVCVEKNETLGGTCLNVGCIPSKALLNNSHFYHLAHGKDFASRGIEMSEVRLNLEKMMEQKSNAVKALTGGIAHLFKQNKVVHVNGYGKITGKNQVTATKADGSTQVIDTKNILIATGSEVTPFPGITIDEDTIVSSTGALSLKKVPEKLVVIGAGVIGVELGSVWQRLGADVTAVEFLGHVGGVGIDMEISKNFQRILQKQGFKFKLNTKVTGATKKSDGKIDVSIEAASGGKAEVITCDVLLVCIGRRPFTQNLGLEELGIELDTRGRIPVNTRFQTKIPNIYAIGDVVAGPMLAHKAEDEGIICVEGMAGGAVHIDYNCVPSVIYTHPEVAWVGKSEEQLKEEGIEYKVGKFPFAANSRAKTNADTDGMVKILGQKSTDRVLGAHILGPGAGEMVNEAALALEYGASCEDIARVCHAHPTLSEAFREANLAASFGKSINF

human Lpd [6] = molecular target: T1, human Lpd; assay: Human Lpd DTNB assay; format: biochemical; conditions: for Inhibition of human Lpd (words): concentrations up to 100 μM
Mtb PDHC = molecular target: T5, Mtb PDHC (Mycobacterium tuberculosis, UniProt P9WHH9); conditions: read-out: IC50 Mtb PDHC; PDHC assay
T5 sequence (P9WHH9 1-464): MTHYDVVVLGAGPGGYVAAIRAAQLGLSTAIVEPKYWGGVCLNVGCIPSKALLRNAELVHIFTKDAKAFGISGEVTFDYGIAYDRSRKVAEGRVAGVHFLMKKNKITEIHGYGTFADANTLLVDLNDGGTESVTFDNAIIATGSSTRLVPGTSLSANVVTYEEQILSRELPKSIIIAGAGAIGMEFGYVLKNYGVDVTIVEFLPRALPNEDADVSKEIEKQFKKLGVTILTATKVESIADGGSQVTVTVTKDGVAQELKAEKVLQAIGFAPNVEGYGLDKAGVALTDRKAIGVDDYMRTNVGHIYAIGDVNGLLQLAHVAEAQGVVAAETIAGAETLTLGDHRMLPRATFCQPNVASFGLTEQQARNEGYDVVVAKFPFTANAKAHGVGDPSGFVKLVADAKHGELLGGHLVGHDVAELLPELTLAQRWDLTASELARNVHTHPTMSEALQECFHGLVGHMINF

[7] = molecular target: T6, bovine thioredoxin reductase (Bos taurus, UniProt O62768); assay: Bovine thioredoxin reductase DTNB assay; format: biochemical; conditions: for IC50: DTNB assay, 100 μM NADPH
T6 sequence (O62768 1-499): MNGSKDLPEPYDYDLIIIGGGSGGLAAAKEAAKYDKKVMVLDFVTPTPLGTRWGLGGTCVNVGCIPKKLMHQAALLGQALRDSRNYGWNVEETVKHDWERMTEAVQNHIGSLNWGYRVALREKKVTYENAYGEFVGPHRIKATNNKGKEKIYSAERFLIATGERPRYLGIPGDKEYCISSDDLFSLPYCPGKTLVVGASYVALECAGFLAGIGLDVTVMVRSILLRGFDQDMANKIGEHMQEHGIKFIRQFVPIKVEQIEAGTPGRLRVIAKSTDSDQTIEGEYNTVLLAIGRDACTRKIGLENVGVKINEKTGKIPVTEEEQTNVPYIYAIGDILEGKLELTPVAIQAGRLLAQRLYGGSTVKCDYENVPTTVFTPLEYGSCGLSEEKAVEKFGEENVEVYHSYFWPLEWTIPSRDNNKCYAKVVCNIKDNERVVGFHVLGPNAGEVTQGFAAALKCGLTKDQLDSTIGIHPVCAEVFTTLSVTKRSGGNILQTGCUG

Mtb Lpd [8] = molecular target: T2, Mtb Lpd; remark: listed apart in the source
porcine PDHC = molecular target: T7, porcine PDHC (Sus scrofa, UniProt P09623); assay: Porcine PDHC assay; format: biochemical
T7 sequence (P09623 36-509): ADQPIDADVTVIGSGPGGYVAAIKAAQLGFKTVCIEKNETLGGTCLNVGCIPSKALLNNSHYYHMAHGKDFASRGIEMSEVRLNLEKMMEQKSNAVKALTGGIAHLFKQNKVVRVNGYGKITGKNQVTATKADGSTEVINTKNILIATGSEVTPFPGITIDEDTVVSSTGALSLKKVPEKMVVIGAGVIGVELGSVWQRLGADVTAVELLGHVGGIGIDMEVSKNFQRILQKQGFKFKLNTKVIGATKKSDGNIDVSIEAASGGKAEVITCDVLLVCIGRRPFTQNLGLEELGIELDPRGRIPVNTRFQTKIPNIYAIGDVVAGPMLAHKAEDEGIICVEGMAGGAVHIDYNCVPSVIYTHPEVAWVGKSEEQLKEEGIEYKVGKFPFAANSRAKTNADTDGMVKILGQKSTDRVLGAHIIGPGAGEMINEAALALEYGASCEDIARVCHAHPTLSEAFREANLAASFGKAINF

crystal structure = molecular target: the molecule itself; assay: crystal structure

COc1ccc(C(=O)N2CCC3(CC2)C(=O)N(CC(=O)NCc2cccc(C(F)(F)F)c2)CN3c2ccccc2)c(OC)c1 [compound 4, 2-(8-(2,4-dimethoxybenzoyl)-4-oxo-1-phenyl-1,3,8-triazaspiro[4.5]decan-3-yl)-N-(3-(trifluoromethyl)benzyl) acetamide]
Inhibition of human Lpd, physiological direction (human Lpd [1]): No inhibition
IC50 (Mtb Lpd [2]; read-out: IC50 Mtb Lpd NADH-lipoamide, NADH-lipoamide assay): 2000 nM
IC50 for Lpd activity in Mtb extracts measured by inhibition of PDHC activity [3]: low micromolar range
EC50 [4]: > 100 µM
Inhibition of Mtb Lpd in dihydrolipoamide-NAD+ assay (Mtb Lpd [5]): inhibited
IC50 (bovine Lpd; read-out: IC50 bLpd, DTNB assay): > 100 µM
Inhibition of human Lpd (words) (human Lpd [6]): did not inhibit
IC50 (human Lpd [6]; read-out: IC50 hLpd, DTNB assay): > 100 µM
IC50 (Mtb PDHC): 7.2 µM
IC50 ([7]; read-out: IC50 bTR): > 100 µM
IC50 (Mtb Lpd [8]; read-out: IC50 Mtb Lpd + BSA, DTNB assay with 100 μg/ml bovine serum albumin): 2100 nM
IC50 (Mtb Lpd [8]; read-out: IC50 Mtb Lpd, DTNB assay): 2000 nM
IC50 (porcine PDHC; read-out: IC50 pPDHC, PDHC assay): 100 µM

COc1ccc(C(=O)N2CCC3(CC2)C(=O)N(CC(=O)NCCc2ccc(Cl)cc2Cl)CN3c2ccccc2)c(OC)c1 [compound 5, N-(2,4-dichlorophenethyl)-2-(8-(2,4-dimethoxybenzoyl)-4-oxo-1-phenyl-1,3,8-triazaspiro[4.5]decan-3-yl)acetamide]
Inhibition of human Lpd, physiological direction (human Lpd [1]): No inhibition
Mode of inhibition with respect to NADH (Mtb Lpd [2]; variable NADH 3.33 to 100 μM): noncompetitive
Mode of inhibition with respect to lipoamide (Mtb Lpd [2]; variable lipoamide): noncompetitive
Mouse bone marrow macrophage survival ([4]; 100 μM (limit of solubility)): 80%
Toxicity against primary mouse bone marrow macrophages ([4]; Fig. 2C): no toxicity
EC50 ([4]; Mus musculus, Bone marrow macrophage, 24 h): > 100 µM
Inhibition of Mtb Lpd in dihydrolipoamide-NAD+ assay (Mtb Lpd [5]): inhibited
Mode of inhibition with respect to NAD+ (Mtb Lpd [5]; variable NAD+ 25 μM to 2.5 mM): noncompetitive
IC50 (bovine Lpd): 100 µM
Inhibition of bovine Lpd (bovine Lpd; Fig. 2C): minimally inhibits
IC50 (human Lpd [6]): > 100 µM
Inhibition of human Lpd (words) (human Lpd [6]): did not produce any measurable inhibition
Inhibition of human Lpd (words) (human Lpd [6]; listed as Compound 5): no inhibition
Inhibition of bovine thioredoxin reductase ([7]; Fig. 2C): minimally inhibits
IC50 ([7]; IC50 bTR): 20 µM
IC50 (porcine PDHC): 100 µM
Inhibition of porcine PDHC (porcine PDHC; Fig. 2C): minimally inhibits

B1: Mycobacterium tuberculosis lipoamide dehydrogenase (Lpd), residues 1-464 (enzyme)
chain: MTHYDVVVLGAGPGGYVAAIRAAQLGLSTAIVEPKYWGGVCLNVGCIPSKALLRNAELVHIFTKDAKAFGISGEVTFDYGIAYDRSRKVAEGRVAGVHFLMKKNKITEIHGYGTFADANTLLVDLNDGGTESVTFDNAIIATGSSTRLVPGTSLSANVVTYEEQILSRELPKSIIIAGAGAIGMEFGYVLKNYGVDVTIVEFLPRALPNEDADVSKEIEKQFKKLGVTILTATKVESIADGGSQVTVTVTKDGVAQELKAEKVLQAIGFAPNVEGYGLDKAGVALTDRKAIGVDDYMRTNVGHIYAIGDVNGLLQLAHVAEAQGVVAAETIAGAETLTLGDHRMLPRATFCQPNVASFGLTEQQARNEGYDVVVAKFPFTANAKAHGVGDPSGFVKLVADAKHGELLGGHLVGHDVAELLPELTLAQRWDLTASELARNVHTHPTMSEALQECFHGLVGHMINF
binding result (crystal structure): binds

— PMC2827632 (Biochemistry, 2010)
